We go through 6 compounds from ChEMBL document CHEMBL2057075, “Guanacastane-type diterpenoids with cytotoxic activity from Coprinus plicatilis” (Bioorg Med Chem Lett, 2012).

Molecules are shown by their SMILES. The source made the active and inactive calls. No cut-off for these calls is given here. Some results are limits rather than exact numbers.

The subject of assay [1] is HepG2. In words: Growth inhibition of human HepG2 cells at 20 uM after 72 hrs by MTT assay. In kind it is functional, cell-based.
The subject of the next assay is HeLa. In words: cells. The conditions noted are these: Homo sapiens, 72 h.
The next assay has as its system BGC-823. In words: Cytotoxicity against human BGC823 cells after 72 hrs by MTT assay. The class given is functional, cell-based. The conditions noted are these: BGC-823, 72 h. (In general: Tetrazolium dyes change colour on reduction, which living cells bring about.)
A further assay has as its system U2OS. The assay can be described thus: Cytotoxicity against human U2OS cells after 72 hrs by MTT assay. In kind it is functional, cell-based.
The test system of assay [2] is HepG2. In words: cells. The conditions noted are these: Homo sapiens, HepG2, 72 h.
Description: Cytotoxicity against human HepG2 cells after 72 hrs by MTT assay
For the next assay, the system named is MDA-MB-231. In words: cells. The conditions noted are these: Homo sapiens, MDA-MB-231, 72 h.
A further assay has as its system HCT-116. The assay can be described thus: cells. The conditions noted are these: Homo sapiens, HCT-116, 72 h.

Description for HeLa: Cytotoxicity against human HeLa cells after 72 hrs by MTT assay
Description for MDA-MB-231: Cytotoxicity against human MDA-MB-231 cells after 72 hrs by MTT assay

Consider `CC(=O)O[C@H]1C(=O)[C@@H]2[C@H]3OCC4=C3[C@@](C)(CC[C@@H]4O)CC[C@]2(C)[C@H]1C(C)C`, for which, in the assay with HepG2 [1], the “growth inhibition (GI)” value is “inactive”.
Take `CC(C)[C@H]1[C@@H](O)[C@@H](O)C2=C3OC(=O)C4=C3[C@@](C)(CC[C@@H]4O)CC[C@@]21C` (relative stereo): the IC50 (as a rule, the midpoint of a concentration-inhibition curve) turned out to be 5 µM in the assay with HeLa; 2.4 µM in the assay on BGC-823; 19.3 µM in the assay with U2OS; 2.3 µM with HepG2 [2]; 6 µM with MDA-MB-231; 1.2 µM with HCT-116. In the assay with HepG2 [1], the “growth inhibition (GI)” value is “Active”.
Regarding `CC(C)[C@H]1C(=O)CC2=C(O)C3=C(CO)[C@@H](O)CC[C@@]3(C)CC[C@@]21C` (relative stereo), the IC50 was more than 50 µM in the assay with HeLa; more than 50 µM with BGC-823; more than 50 µM in the assay with U2OS; 25.9 µM with HepG2 [2]; more than 50 µM with MDA-MB-231; 38.9 µM with HCT-116. Moreover, the “growth inhibition (GI)” value with HepG2 [1] was “Active”.
In the case of `CC(C)[C@H]1[C@@H](O)C(=O)[C@@]2(O)[C@H]3OCC4=C3[C@@](C)(CC[C@@H]4O)CC[C@]12C` (relative stereo), the IC50 in the assay on HeLa was more than 50 µM; with BGC-823, 35.6 µM; in the assay with U2OS, 39.7 µM; in the assay with HepG2 [2], 16.9 µM; with MDA-MB-231, 34.8 µM; in the assay with HCT-116, 19.8 µM. In addition, the “growth inhibition (GI)” value in the assay with HepG2 [1] was “Active”.
Regarding `CC(C)[C@H]1[C@@H](O)[C@H](O)C2=CC3=C(CO)CCC[C@@]3(C)CC[C@@]21C` (relative stereo), in the assay with HepG2 [1], the “growth inhibition (GI)” value was “inactive”.
With `COc1cccc2c1C(=O)c1c(O)c3c(c(O)c1C2=O)C[C@@](O)(C(=O)CO)C[C@@H]3O[C@H]1C[C@H](N)[C@H](O)[C@H](C)O1` [DOXORUBICIN], the IC50 in the assay with HeLa came to 0.6 µM; in the assay with BGC-823, 0.9 µM; with U2OS it was 3.4 µM; with HepG2 [2], 0.7 µM; with HCT-116, 0.3 µM.
